Data: patent US11065238B2, “Inhibitors of gangliosides metabolism for the treatment of motor neuron diseases” (ICM (INSTITUT DU CERVEAU ET DE LA MOELLE ÉPINIÈRE), priority 2016, dated 2021)
Entries after “also recorded” stand apart in the source; their conditions may differ.

Columns and labels:
cultured neurons = conditions: glutamate treatment; cited from earlier work
[1] = test system: GM2 and GM3 gangliosides in primary cultures of cortical neurons; assay: Fluorescence intensity of GM2 / GM3 immunostaining in primary cultures of cortical neurons; assay type: cell-based, mouse; conditions: for increase in overall GM2 levels: glutamate treatment
Experimental: Mouse primary cultures of cortical neurons were treated with Miglustat (Tocris) from the second day in culture. Medium was changed every three days. Immunostaining were performed after six days of culture in vitro, as previously described (Murmu et al., 2011). To downregulate GM3 synthase expression, vectors expressing miRNA were produced using the Block-it kit (Life Technologies). The miRNA sequences were: […] TGTACAT (miRNA GM3S-1) (SEQ ID NO: 3), […] (miRNA GM3S-2) (SEQ ID NO: 4), […] CTGTAGA (miRNA Neu1-1) (SEQ ID NO: 5) and […] ATCGTAG (miRNA Neu1-2) (SEQ ID NO: 6). Neurons were transfected with vectors expressing the miRNA and GFP using the Neon transfection system (Life Technologies). The efficiency of the miRNA sequences was validated by transfecting NIH-3T3 cells and performing quantitative RT-PCR using a LightCycler 480 apparatus (Roche) following the manufacturer's instructions. […] Quantification of gangliosides levels was performed either with an automated ArrayScan XTI apparatus (Thermo-Fisher) using the General Intensity Measurement protocol, or with ImageJ on image acquired on a Nikon Eclipse Ti-U microscope. […] Colocalization of ganglioside staining with lysosomes was quantified using ImageJ. A mask was made from the Lamp1 staining channel and the corresponding ganglioside fluorescence was quantified as the percentage of total ganglioside fluorescence in every cell. […] To quantify neuronal death, 30 hours after glutamate treatment all neurons were labeled with 100 nM Cell tracker Deep Red (Life Technologies) and dead cells were labeled by propidium iodide (5 μM). […] The number of Tuj-1-positive cells per well was quantified with an automated ArrayScan XTI apparatus (Thermo-Fisher) using the compartmental analysis protocol. Neuronal death was quantified by comparing glutamate-treated and non-treated neurons.

p62 = assay: Western blot analysis of p62 levels in cortical neurons; assay type: cell-based, mouse
[2] = test system: primary cultures of Spg11+/+ and Spg11−/− cortical neurons; assay: Neuronal death triggered by glutamate in primary cultures of cortical neurons; assay type: cell-based, mouse; conditions: glutamate 200 μM, 30 hours
Experimental: (§1) Mouse primary cultures of cortical neurons were treated with Miglustat (Tocris) from the second day in culture. Medium was changed every three days. Immunostaining were performed after six days of culture in vitro, as previously described (Murmu et al., 2011). To downregulate GM3 synthase expression, vectors expressing miRNA were produced using the Block-it kit (Life Technologies). The miRNA sequences were: […] TGTACAT (miRNA GM3S-1) (SEQ ID NO: 3), […] (miRNA GM3S-2) (SEQ ID NO: 4), […] CTGTAGA (miRNA Neu1-1) (SEQ ID NO: 5) and […] ATCGTAG (miRNA Neu1-2) (SEQ ID NO: 6). Neurons were transfected with vectors expressing the miRNA and GFP using the Neon transfection system (Life Technologies). The efficiency of the miRNA sequences was validated by transfecting NIH-3T3 cells and performing quantitative RT-PCR using a LightCycler 480 apparatus (Roche) following the manufacturer's instructions. […] Quantification of gangliosides levels was performed either with an automated ArrayScan XTI apparatus (Thermo-Fisher) using the General Intensity Measurement protocol, or with ImageJ on image acquired on a Nikon Eclipse Ti-U microscope. […] Colocalization of ganglioside staining with lysosomes was quantified using ImageJ. A mask was made from the Lamp1 staining channel and the corresponding ganglioside fluorescence was quantified as the percentage of total ganglioside fluorescence in every cell. […]

[3] = test system: zebrafish zspg11 morphants; assay: Zebrafish zspg11 model: phenotype of morphants 48 hours post fertilization; assay type: in vivo; conditions: 48 hpf; for motor phenotype of morphants: injection of 1.2 pmol morpholino vs mismatch or non-injected
Experimental: (§2) Modeling of Spg11 pathology in zebrafish was performed as described previously (Martin, 2012). The knock-down of zspg11 was performed using a morpholino targeting a splice donor site, zspg11spl (5′-[…]-3′—SEQ ID NO: 88). The control morpholino mmzspg11spl (5′-ACgAATgATAGCcTCTCGTAgCgTC-3′—SEQ ID NO: 89) containing five mismatch nucleotides was used to distinguish specific phenotypic effects resulting from the knock-down of zspg11 from non-specific effects due to injection or morpholino toxicity. One nl of 1.2 mM solution of zspg11spl or mmzspg11spl were injected into the yolk of one- to two-cell stage embryos. After injection, embryos were maintained at 28° C. in E3 medium, containing miglustat (Tocris Bioscience) at 100 or 300 uM or DMSO for control groups. At 24 hpf they were manually dechorionated using fine forceps. […] To quantify motor activity, we monitored the touch-evoked escape response at 48 hours post-fertilization in fishes with no obvious developmental abnormalities as previously described (Martin, 2012). Images were acquired at 500 images per sec. Tracking of the touch evoked escape response was performed using the Image J manual tracking plugin. Assessment of GM2 ganglioside levels was performed by whole-mount in vivo immunohistochemistry using 48 hpf embryos fixed in 4% paraformaldehyde in PBS for 2 h at room temperature. Embryos were washed 3 times (5 min each) in PBS-0.1% Triton X-100 (PBST). Embryos were blocked for 1 h in 5% normal goat serum in PBS containing 1% DMSO and 1% Triton X-100 (PBDT), then incubated overnight at 4° C. in blocking solution containing the GM2 primary antibody. […] Larvae were oriented in the same position for image capture to minimize potential biases in quantification. […] Using ImageJ software, the maximum intensity projections of z-stacks were used for quantification of fluorescence in the telencephalon. Mean and variance of the fluorescence intensity were quantified for each morphant in a square of 100 pixels per 100 pixels.

[4] = test system: GM2 in the telencephalon of zebrafish morphants; assay: Zebrafish zspg11 model: GM2 immunostaining in the telencephalon; assay type: in vivo; conditions: for GM2 immunostaining in the telencephalon: injection of 1.2 pmol morpholino vs mismatch morpholino
Experimental: as §2

[5] = test system: mouse model of Tay Sachs disease; conditions: cited from earlier work
[6] = test system: zebrafish zspg11 morphants; assay: Zebrafish zspg11 model: touch-evoked escape response; assay type: in vivo; conditions: for distance travelled following a touch-evoked escape response: treated with miglustat; for swimming / touch-induced escape: injection of 1.2 pmol morpholino vs mismatch morpholino
Experimental: Modeling of Spg11 pathology in zebrafish was performed as described previously (Martin, 2012). The knock-down of zspg11 was performed using a morpholino targeting a splice donor site, zspg11spl (5′-[…]-3′—SEQ ID NO: 88). The control morpholino mmzspg11spl (5′-ACgAATgATAGCcTCTCGTAgCgTC-3′—SEQ ID NO: 89) containing five mismatch nucleotides was used to distinguish specific phenotypic effects resulting from the knock-down of zspg11 from non-specific effects due to injection or morpholino toxicity. One nl of 1.2 mM solution of zspg11spl or mmzspg11spl were injected into the yolk of one- to two-cell stage embryos. After injection, embryos were maintained at 28° C. in E3 medium, containing miglustat (Tocris Bioscience) at 100 or 300 uM or DMSO for control groups. At 24 hpf they were manually dechorionated using fine forceps. […] To quantify motor activity, we monitored the touch-evoked escape response at 48 hours post-fertilization in fishes with no obvious developmental abnormalities as previously described (Martin, 2012). Images were acquired at 500 images per sec. Tracking of the touch evoked escape response was performed using the Image J manual tracking plugin. Assessment of GM2 ganglioside levels was performed by whole-mount in vivo immunohistochemistry using 48 hpf embryos fixed in 4% paraformaldehyde in PBS for 2 h at room temperature. Embryos were washed 3 times (5 min each) in PBS-0.1% Triton X-100 (PBST). Embryos were blocked for 1 h in 5% normal goat serum in PBS containing 1% DMSO and 1% Triton X-100 (PBDT), then incubated overnight at 4° C. in blocking solution containing the GM2 primary antibody. After 4 washes in PBST at room temperature, embryos were incubated with an anti IgM antibody coupled to Alexa-488 (Thermo Fishser), overnight at room temperature in PBDT. Before observation, embryos were washed 3 times in PSBT and mounted in a drop of Fluoromount™ Aqueous Mounting Medium (Sigma Aldrich). Whole-mount embryos were imaged on a confocal microscope (Leica SP8, 40X, NA 0.8). Larvae were oriented in the same position for image capture to minimize potential biases in quantification. Image stacks were collected with a step-size of 0.35 μm. Using ImageJ software, the maximum intensity projections of z-stacks were used for quantification of fluorescence in the telencephalon. Mean and variance of the fluorescence intensity were quantified for each morphant in a square of 100 pixels per 100 pixels.

[7] = test system: autolysosomes in Spg11+/+ and Spg11−/− neurons; assay: Proportion of Lamp1-stained lysosomes also positive for p62 (autolysosomes) in cultured cortical neurons; assay type: cell-based, mouse; conditions: miglustat 100 μM, six days in vitro
Experimental: as §1

N[C@@H](CCC(=O)O)C(=O)O [Glutamate, glutamate]
ganglioside levels (cultured neurons): increase ganglioside levels | increase in overall GM2 levels ([1]; Spg11−/− neurons, p=0.007, n>10): 15.7±3.9% | increase in overall GM2 levels ([1]; control neurons, p=0.02, n>9): 20.0±4.6% | p62 levels (p62; Spg11−/− neurons treated with glutamate (200 μM) for 24 hours): significantly increased | p62 levels (p62; control neurons treated with glutamate (200 μM) for 24 hours): no difference

CCCCN1C[C@H](O)[C@@H](O)[C@H](O)[C@H]1CO [Miglustat, N-butyldeoxynojirimycin]
neuronal death induced by glutamate [2]: prevented neuronal death induced by glutamate; also recorded: decreased the neuronal death induced by glutamate in a dose-dependent manner | proportion of paralyzed larvae ([3]; larvae injected with zspg11spl morpholino, miglustat 100 or 300 uM in medium): decreased the proportion of paralyzed morphants; also recorded: significantly reduced in a dose-dependent manner | GM2 immunostaining intensity (mean and variance) in the telencephalon ([4]; morphants injected with zspg11spl morpholino, treated with miglustat, 48 hpf): corrected when morphants were treated with miglustat; also recorded: corrected in larvae treated by miglustat | brain levels of GM2 [5]: decrease brain levels of GM2 | distance travelled following a touch-evoked escape response ([6]; morphants injected with mismatch morpholino): no effect | distance travelled following a touch-evoked escape response ([6]; morphants injected with zspg11spl morpholino, 48 hpf): corrected when treated by miglustat; also recorded: significantly corrected | levels of GM2 (fluorescence intensity of GM2 immunostaining) ([1]; control and Spg11−/− cortical neurons, six days in vitro): significantly decreased the levels of GM2 in a dose-dependent manner | glutamate-induced increase of p62 levels (p62; Spg11−/− neurons, miglustat 100 μM, glutamate 200 μM for 24 hours, p62 normalized to tubulin): inhibited | proportion of lysosomes positive for the p62 marker [7]: strongly decreased

zspg11spl: morpholino targeting a splice donor site for knock-down of zspg11, 5′-ACCAATCATAGCGTCTCGTACCCTC-3′ (all phosphorodiamidate morpholino (PMO))
motor phenotype of morphants [3]: large proportion of paralyzed or slowly swimming phenotypes | motor phenotype of morphants ([3]; listed as zspg11 morpholinos): either a loss of motility or a paralysis | GM2 immunostaining in the telencephalon [4]: increased the mean and variance of GM2 immunostaining intensity | GM2 immunostaining in the telencephalon ([4]; listed as zspg11 morpholinos): stronger GM2 staining | swimming / touch-induced escape [6]: impaired the swimming | swimming / touch-induced escape ([6]; listed as zspg11 morpholinos): significantly shorter touch-induced escapes
